Results: US20260297080A1, “BICYCLIC COMPOUNDS AS CDK INHIBITORS” (BeOne Medicines I GmbH, priority 2022, published 2026)

Legend:
CDK1/Cyclin B1 = CDK1/Cyclin B1 (Homo sapiens, UniProt P06493); assay: CDK1/Cyclin B1 Biochemical Assay (TR-FRET), 0.015 mM ATP; details: 0.15 μM Rb (Ser780)-biotin substrate, pH7.0, 60 min preincubation, 120 min reaction, room temperature
Method in brief: (§1)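 Kinase preincubated with compound (0–10 μM) 60 min at room temperature, then reaction started with ATP and 0.15 μM Rb (Ser780)-biotin peptide and run 120 min in HEPES pH 7.0 buffer with 50 mM MgCl2. Phospho-Rb detected by Eu-cryptate anti-pRb(Ser780)/streptavidin-XL665 TR-FRET (665/620 nm ratio); IC50 from four-parameter logistic fit.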

CDK2/Cyclin E1 = CDK2/Cyclin E1 (Homo sapiens, UniProt P24941); assay: CDK2/Cyclin E1 Biochemical Assay (TR-FRET), 0.060 mM ATP; details: 0.15 μM Rb (Ser780)-biotin substrate, pH7.0, 60 min preincubation, 120 min reaction, room temperature
Method in brief: as §1

CDK1/Cyclin B1, sequence (P06493 whole entry): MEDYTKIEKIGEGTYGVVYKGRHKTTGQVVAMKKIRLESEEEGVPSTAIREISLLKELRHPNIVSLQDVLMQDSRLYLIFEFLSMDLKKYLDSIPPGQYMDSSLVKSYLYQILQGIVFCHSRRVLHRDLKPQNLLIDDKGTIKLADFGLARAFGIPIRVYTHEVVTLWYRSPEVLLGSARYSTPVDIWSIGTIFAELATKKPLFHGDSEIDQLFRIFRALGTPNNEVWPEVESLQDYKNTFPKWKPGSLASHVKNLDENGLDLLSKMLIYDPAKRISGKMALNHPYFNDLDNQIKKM
CDK1/Cyclin B1, sequence (P14635 whole entry partner): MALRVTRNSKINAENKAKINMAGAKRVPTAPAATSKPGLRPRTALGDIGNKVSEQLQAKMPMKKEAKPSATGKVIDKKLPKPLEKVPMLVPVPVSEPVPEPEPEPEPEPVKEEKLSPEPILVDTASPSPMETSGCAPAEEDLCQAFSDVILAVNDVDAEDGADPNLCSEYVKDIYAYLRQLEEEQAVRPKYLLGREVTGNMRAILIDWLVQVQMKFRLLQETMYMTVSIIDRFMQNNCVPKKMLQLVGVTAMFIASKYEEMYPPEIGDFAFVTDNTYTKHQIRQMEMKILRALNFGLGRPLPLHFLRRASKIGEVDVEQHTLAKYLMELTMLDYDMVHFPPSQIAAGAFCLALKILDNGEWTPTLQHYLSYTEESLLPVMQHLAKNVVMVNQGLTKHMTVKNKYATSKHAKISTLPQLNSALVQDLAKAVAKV

Row | Compound | IC50 (CDK1/Cyclin B1) | IC50 (CDK2/Cyclin E1)
1 | COCCN1c2ccc(Nc3cc([C@@H]4CC[C@H](OC(=O)NC(C)C)C4)[nH]n3)c(F)c2CS1(=O)=O (relative stereo) [Example 252, cis-3-(3-((4-fluoro-1-(2-methoxyethyl)-2,2-dioxido-1,3-dihydrobenzo[c]isothiazol-5-yl)cyclopentyl isopropylcarbamate] | 79 nM | 3.8 nM
2 | CC(C)NC(=O)O[C@H]1CC[C@@H](c2cc(Nc3ccc4c(c3F)C(CCO)S(=O)(=O)N4CCO)n[nH]2)C1 (relative stereo) [Example 253, cis-3-(3-((4-fluoro-1,3-bis(2-hydroxyethyl)-2,2-dioxido-1,3-dihydrobenzo[c]isothiazol-5-yl)amino)-1H-pyrazol-5-yl)cyclopentyl isopropylcarbamate] | 96 nM | 4.3 nM
3 | CN1c2ccc(Nc3cc([C@@H]4CC[C@H](OC(=O)NC5(C)CC5)C4)[nH]n3)c(F)c2CS1(=O)=O (relative stereo) [Example 257, cis-3-(3-((4-fluoro-1-methyl-2,2-dioxido-1,3-dihydrobenzo[c]isothiazol-5-yl)amino)-1H-pyrazol-5-yl)cyclopentyl(1-methylcyclopropyl)carbamate] | 33 nM | 1.5 nM
4 | [2H]C([2H])([2H])N1c2ccc(Nc3cc([C@@H]4CC[C@H](OC(=O)NC5(C)CC5)C4)[nH]n3)c(F)c2CS1(=O)=O (relative stereo) [Example 270, cis-3-(3-((4-fluoro-1-(methyl-d3)-2,2-dioxido-1,3-dihydrobenzo[c]isothiazol-5-yl)amino)-1H-pyrazol-5-yl)cyclopentyl(1-methylcyclopropyl)carbamate] | 37 nM | 1.7 nM
5 | CCCNC(=O)O[C@H]1CC[C@@H](c2cc(Nc3ccc4c(c3F)CS(=O)(=O)N4C3CC3)n[nH]2)C1 (relative stereo) [Example 276, cis-3-(3-((1-cyclopropyl-4-fluoro-2,2-dioxido-1,3-dihydrobenzo[c]isothiazol-5-yl)amino)-1H-pyrazol-5-yl)cyclopentyl propylcarbamate] | 111 nM | 5 nM
6 | CC1(NC(=O)O[C@H]2CC[C@@H](c3cc(Nc4ccc5c(c4F)CS(=O)(=O)N5C4CC4)n[nH]3)C2)CC1 (relative stereo) [Example 277, cis-3-(3-((1-cyclopropyl-4-fluoro-2,2-dioxido-1,3-dihydrobenzo[c]isothiazol-5-yl)amino)-1H-pyrazol-5-yl)cyclopentyl(1-methylcyclopropyl)carbamate] | 36 nM | 1.7 nM
7 | CC[C@H](C)NC(=O)O[C@H]1CC[C@@H](c2cc(Nc3ccc4c(c3F)CS(=O)(=O)N4C3CC3)n[nH]2)C1 (relative stereo) [Example 278, cis-3-(3-((1-cyclopropyl-4-fluoro-2,2-dioxido-1,3-dihydrobenzo[c]isothiazol-5-yl)amino)-1H-pyrazol-5-yl)cyclopentyl((S)-sec-butyl)carbamate] | 56 nM | 1.3 nM
8 | CC(C)NC(=O)O[C@H]1CC[C@@H](c2cc(Nc3cc(F)c4c(c3)CS(=O)(=O)N4)n[nH]2)C1 (relative stereo) [Example 279, cis-3-(3-((7-fluoro-2,2-dioxido-1,3-dihydrobenzo[c]isothiazol-5-yl)amino)-1H-pyrazol-5-yl)cyclopentyl isopropylcarbamate] | 43 nM | 0.7 nM
9 | CC(C)NC(=O)O[C@H]1CC[C@@H](c2cc(Nc3cc(F)c4c(c3)CS(=O)(=O)N4C)n[nH]2)C1 (relative stereo) [Example 280, cis-3-(3-((7-fluoro-1-methyl-2,2-dioxido-1,3-dihydrobenzo[c]isothiazol-5-yl)amino)-1H-pyrazol-5-yl)cyclopentyl isopropylcarbamate] | 149 nM | 10 nM
10 | COCN1c2c(F)cc(Nc3cc([C@@H]4CC[C@H](OC(=O)NC(C)C)C4)[nH]n3)cc2CS1(=O)=O (relative stereo) [Example 282, cis-3-(3-((7-fluoro-1-(methoxymethyl)-2,2-dioxido-1,3-dihydrobenzo[c]isothiazol-5-yl)amino)-1H-pyrazol-5-yl)cyclopentyl isopropylcarbamate] | 141 nM | 7.7 nM

Further molecules by falling IC50 (CDK1/Cyclin B1), results first:

Row | IC50 (CDK1/Cyclin B1) | IC50 (CDK2/Cyclin E1) | Compound
11 | 131 nM | 8.1 nM | CC(C)NC(=O)O[C@H]1CC[C@@H](c2cc(Nc3cc(F)c4c(c3)CS(=O)(=O)N4CC(F)(F)F)n[nH]2)C1 (relative stereo) [Example 281, cis-3-(3-((7-fluoro-2,2-dioxido-1-(2,2,2-trifluoroethyl)-1,3-dihydrobenzo[c]isothiazol-5-yl)amino)-1H-pyrazol-5-yl)cyclopentyl isopropylcarbamate]
12 | 61 nM | 5.6 nM | [2H]C([2H])([2H])N1c2ccc(Nc3cc([C@@H]4CC[C@H](OC(=O)N[C@@H](C)CC)C4)[nH]n3)c(F)c2CS1(=O)=O (relative stereo) [Example 269, cis-3-(3-((4-fluoro-1-(methyl-d3)-2,2-dioxido-1,3-dihydrobenzo[c]isothiazol-5-yl)amino)-1H-pyrazol-5-yl)cyclopentyl((S)-sec-butyl)carbamate]
13 | 43 nM | 2.5 nM | CC[C@H](C)NC(=O)O[C@H]1CC[C@@H](c2cc(Nc3ccc4c(c3F)CS(=O)(=O)N4CCO)n[nH]2)C1 (relative stereo) [Example 273, cis-3-(3-((4-fluoro-1-(2-hydroxyethyl)-2,2-dioxido-1,3-dihydrobenzo[c]isothiazol-5-yl)amino)-1H-pyrazol-5-yl)cyclopentyl((S)-sec-butyl)carbamate]
14 | 37 nM | 1.5 nM | CC[C@H](C)NC(=O)O[C@H]1CC[C@@H](c2cc(Nc3ccc4c(c3F)CS(=O)(=O)N4C)n[nH]2)C1 (relative stereo) [Example 258, cis-3-(3-((4-fluoro-1-methyl-2,2-dioxido-1,3-dihydrobenzo[c]isothiazol-5-yl)amino)-1H-pyrazol-5-yl)cyclopentyl((S)-sec-butyl)carbamate]
15 | 33 nM | 1.3 nM | CC1(NC(=O)O[C@H]2CC[C@@H](c3cc(Nc4ccc5c(c4F)CS(=O)(=O)N5C4COC4)n[nH]3)C2)CC1 (relative stereo) [Example 262, cis-3-(3-((4-fluoro-1-(oxetan-3-yl)-2,2-dioxido-1,3-dihydrobenzo[c]isothiazol-5-yl)amino)-1H-pyrazol-5-yl)cyclopentyl(1-methylcyclopropyl)carbamate]
16 | 30 nM | 2.1 nM | CC(C)NC(=O)O[C@H]1CC[C@@H](c2cc(Nc3ccc4c(c3)CCS(=O)(=O)N4C)n[nH]2)C1 (relative stereo) [Example 250, cis-3-(3-((1-methyl-2,2-dioxido-3,4-dihydro-1H-benzo[c][1,2]thiazin-6-yl)amino)-1H-pyrazol-5-yl)cyclopentyl isopropylcarbamate]
17 | 22 nM | 1 nM | CC1(NC(=O)O[C@H]2CC[C@@H](c3cc(Nc4ccc5c(c4F)CS(=O)(=O)N5CCO)n[nH]3)C2)CC1 (relative stereo) [Example 274, cis-3-(3-((4-fluoro-1-(2-hydroxyethyl)-2,2-dioxido-1,3-dihydrobenzo[c]isothiazol-5-yl)amino)-1H-pyrazol-5-yl)cyclopentyl(1-methylcyclopropyl)carbamate]
